Reference: patent US11739098B2 (BRISTOL-MYERS SQUIBB COMPANY, priority 2017, dated 2023)

What was measured:
Assay type in all cases: cell-based
[1] = target: T1, human TLR7 (Homo sapiens, UniProt Q9NYK1); experiment: TLR7 inhibition reporter assay (HEK-Blue cells, SEAP reporter, gardiquimod stimulation); details: HEK-Blue cells overexpressing human TLR7, SEAP reporter, gardiquimod 7.5 μM
T1 construct: host or cells: HEK-Blue cells (HEK293-derived reporter line)
T1 sequence (Q9NYK1 27-1049): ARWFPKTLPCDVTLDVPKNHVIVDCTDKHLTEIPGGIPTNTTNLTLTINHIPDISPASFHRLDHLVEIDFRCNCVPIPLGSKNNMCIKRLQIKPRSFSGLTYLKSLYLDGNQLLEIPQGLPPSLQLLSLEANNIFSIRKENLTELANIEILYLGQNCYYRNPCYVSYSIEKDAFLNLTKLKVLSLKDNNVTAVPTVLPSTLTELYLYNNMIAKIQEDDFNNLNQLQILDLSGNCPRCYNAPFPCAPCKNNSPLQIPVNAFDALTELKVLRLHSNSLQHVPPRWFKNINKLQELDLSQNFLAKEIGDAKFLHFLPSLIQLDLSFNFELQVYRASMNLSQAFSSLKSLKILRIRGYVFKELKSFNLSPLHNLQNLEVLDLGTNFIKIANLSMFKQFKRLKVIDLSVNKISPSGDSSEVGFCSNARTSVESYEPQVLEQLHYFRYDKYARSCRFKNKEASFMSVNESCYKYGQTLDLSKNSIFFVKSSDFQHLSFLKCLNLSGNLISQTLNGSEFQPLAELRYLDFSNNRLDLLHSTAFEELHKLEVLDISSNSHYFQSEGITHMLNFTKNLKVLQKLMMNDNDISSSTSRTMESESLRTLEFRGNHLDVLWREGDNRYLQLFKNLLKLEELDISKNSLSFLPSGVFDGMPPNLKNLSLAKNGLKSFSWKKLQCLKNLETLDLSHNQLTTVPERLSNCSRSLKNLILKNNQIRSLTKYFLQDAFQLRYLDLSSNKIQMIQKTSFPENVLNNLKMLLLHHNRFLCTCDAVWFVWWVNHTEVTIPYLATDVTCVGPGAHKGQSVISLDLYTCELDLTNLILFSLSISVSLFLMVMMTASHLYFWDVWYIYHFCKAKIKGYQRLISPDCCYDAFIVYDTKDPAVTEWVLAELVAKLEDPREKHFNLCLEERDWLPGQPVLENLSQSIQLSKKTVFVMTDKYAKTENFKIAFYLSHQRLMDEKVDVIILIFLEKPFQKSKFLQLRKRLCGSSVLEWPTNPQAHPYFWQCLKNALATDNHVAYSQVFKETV
How it was run: (§1)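 After 22 h at 37 °C, SEAP secretion was measured from human TLR7-, TLR8- or TLR9-expressing HEK-Blue reporter cells given compound (0.05 nM–50 μM) 30 min before agonist: 7.5 μM gardiquimod, 15.9 μM R848 or 5 nM ODN2006 respectively. Percent inhibition referenced to agonist-plus-DMSO and known-inhibitor wells.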

[2] = target: T2, human TLR8 (Homo sapiens, UniProt Q9NR97); experiment: TLR8 inhibition reporter assay (HEK-Blue cells, SEAP reporter, R848 stimulation); details: HEK-Blue cells overexpressing human TLR8, SEAP reporter, R848 15.9 μM
T2 construct: host or cells: HEK-Blue cells (HEK293-derived reporter line)
T2 sequence (Q9NR97 27-1041): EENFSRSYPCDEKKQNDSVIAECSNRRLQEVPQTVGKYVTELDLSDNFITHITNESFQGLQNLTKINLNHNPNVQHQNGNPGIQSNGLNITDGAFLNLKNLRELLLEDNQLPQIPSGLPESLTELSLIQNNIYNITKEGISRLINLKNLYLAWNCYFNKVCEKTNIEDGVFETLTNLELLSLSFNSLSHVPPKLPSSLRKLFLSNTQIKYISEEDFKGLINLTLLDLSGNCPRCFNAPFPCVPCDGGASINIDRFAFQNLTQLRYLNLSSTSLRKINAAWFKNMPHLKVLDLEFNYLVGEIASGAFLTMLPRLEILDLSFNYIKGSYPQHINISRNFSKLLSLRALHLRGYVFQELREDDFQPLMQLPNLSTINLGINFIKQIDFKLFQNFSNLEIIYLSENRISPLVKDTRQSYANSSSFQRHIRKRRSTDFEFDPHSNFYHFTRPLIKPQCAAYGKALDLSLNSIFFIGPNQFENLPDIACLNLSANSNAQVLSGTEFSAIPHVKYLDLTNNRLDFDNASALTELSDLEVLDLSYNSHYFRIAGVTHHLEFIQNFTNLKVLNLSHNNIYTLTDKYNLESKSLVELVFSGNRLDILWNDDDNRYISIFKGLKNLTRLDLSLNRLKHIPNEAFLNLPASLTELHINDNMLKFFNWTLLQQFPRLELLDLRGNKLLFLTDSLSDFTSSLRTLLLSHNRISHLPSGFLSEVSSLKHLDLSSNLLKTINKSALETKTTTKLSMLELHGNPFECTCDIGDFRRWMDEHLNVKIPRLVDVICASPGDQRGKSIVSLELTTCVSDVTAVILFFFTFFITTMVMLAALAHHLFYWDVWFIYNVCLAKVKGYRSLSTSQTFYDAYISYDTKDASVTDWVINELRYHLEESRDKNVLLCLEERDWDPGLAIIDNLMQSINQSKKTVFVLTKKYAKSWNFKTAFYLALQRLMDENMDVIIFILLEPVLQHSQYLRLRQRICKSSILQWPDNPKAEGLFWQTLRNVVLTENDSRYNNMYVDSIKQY
How it was run: as §1

[3] = target: T3, human TLR9 (Homo sapiens, UniProt Q9NR96); experiment: TLR9 inhibition reporter assay (HEK-Blue cells, SEAP reporter, ODN2006 stimulation); details: HEK-Blue cells overexpressing human TLR9, SEAP reporter, ODN2006 5 nM
T3 construct: host or cells: HEK-Blue cells (HEK293-derived reporter line)
T3 sequence (Q9NR96 26-1032): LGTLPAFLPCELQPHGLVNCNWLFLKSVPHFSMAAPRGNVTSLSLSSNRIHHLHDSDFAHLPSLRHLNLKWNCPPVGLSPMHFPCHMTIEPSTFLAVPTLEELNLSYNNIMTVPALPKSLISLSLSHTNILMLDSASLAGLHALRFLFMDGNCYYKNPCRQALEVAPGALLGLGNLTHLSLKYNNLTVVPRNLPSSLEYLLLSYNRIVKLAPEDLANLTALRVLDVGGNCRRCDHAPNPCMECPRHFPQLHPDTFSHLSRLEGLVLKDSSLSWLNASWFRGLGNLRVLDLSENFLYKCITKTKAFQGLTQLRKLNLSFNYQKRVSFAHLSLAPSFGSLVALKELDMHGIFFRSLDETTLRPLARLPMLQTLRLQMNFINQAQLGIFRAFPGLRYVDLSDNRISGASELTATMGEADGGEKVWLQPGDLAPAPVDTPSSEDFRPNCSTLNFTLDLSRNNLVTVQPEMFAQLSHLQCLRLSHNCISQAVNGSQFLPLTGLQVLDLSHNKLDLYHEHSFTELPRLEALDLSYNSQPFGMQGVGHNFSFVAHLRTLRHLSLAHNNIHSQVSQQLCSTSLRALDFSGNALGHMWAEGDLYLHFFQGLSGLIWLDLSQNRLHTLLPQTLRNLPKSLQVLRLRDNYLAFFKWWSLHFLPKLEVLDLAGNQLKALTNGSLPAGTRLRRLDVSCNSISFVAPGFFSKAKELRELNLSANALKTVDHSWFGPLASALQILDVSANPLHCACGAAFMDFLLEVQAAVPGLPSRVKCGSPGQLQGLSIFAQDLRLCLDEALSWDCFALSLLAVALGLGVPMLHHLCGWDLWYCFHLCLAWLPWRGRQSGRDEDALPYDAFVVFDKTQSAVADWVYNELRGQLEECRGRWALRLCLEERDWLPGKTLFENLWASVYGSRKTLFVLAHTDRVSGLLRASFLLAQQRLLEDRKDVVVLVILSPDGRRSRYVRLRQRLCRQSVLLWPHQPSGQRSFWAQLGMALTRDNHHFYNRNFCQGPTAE
How it was run: as §1

| Compound | IC50 [1] [nM] | IC50 [2] [nM] | IC50 [3] [nM] |
| --- | --- | --- | --- |
| CCc1c(-c2c(C)cnc3[nH]ccc23)[nH]c2ccc(C3CCNCC3)cc12 [Example 246, 4-(3-ethyl-5-(piperidin-4-yl)-1H-indol-2-yl)-5-methyl-1H-pyrrolo[2,3-b]pyridine] | < 100 | < 100 | 100 to 1000 |
| CNC(=O)CN1CCC(c2ccc3[nH]c(-c4ccc5cnnn5c4)c(C(C)C)c3c2)CC1 [Example 300, 2-(4-(2-([1,2,3]triazolo[1,5-a]pyridin-6-yl)-3-isopropyl-1H-indol-5-yl)piperidin-1-yl)-N-methylacetamide] | 100 to 1000 | 100 to 1000 | 1000 to 50000 |
| CCc1c(-c2cnc3cn[nH]c3c2)[nH]c2ccc(C3CCNCC3)cc12 [Example 62, 6-(3-ethyl-5-(piperidin-4-yl)-1H-indol-2-yl)-1H-pyrazolo[4,3-b]pyridine] | 100 to 1000 | 100 to 1000 | 100 to 1000 |
| Cc1c(-c2[nH]c3ccc(C4CCN(CC(=O)N(C)C)CC4)cc3c2C(C)C)nn2ncnc2c1C [Example 280, 2-(4-(2-(7,8-dimethyl-[1,2,4]triazolo[1,5-b]pyridazin-6-yl)-3-isopropyl-1H-indol-5-yl)piperidin-1-yl)-N,N-dimethylacetamide] | < 100 | < 100 | 1000 to 50000 |
| CNC(=O)CN1CCC(c2ccc3[nH]c(-c4cnc5ccnn5c4)c(C(C)C)c3c2)CC1 [Example 360, 2-(4-(3-isopropyl-2-(pyrazolo[1,5-a]pyrimidin-6-yl)-1H-indol-5-yl)piperidin-1-yl)-N-methylacetamide] | 1000 to 50000 | > 3130 | 1000 to 50000 |
| CC(C)c1c(-c2ccnc3[nH]ncc23)[nH]c2ccc(C3CCN(Cc4cnc(N)s4)CC3)cc12 [Example 926, 5-((4-(3-isopropyl-2-(1H-pyrazolo[3,4-b]pyridin-4-yl)-1H-indol-5-yl)piperidin-1-yl)methyl)thiazol-2-amine] | < 100 | < 100 | 1000 to 50000 |
| CCc1c(-c2ccnc3[nH]cc(Cl)c23)[nH]c2ccc(C3CCNCC3)cc12 [Example 39, 3-chloro-4-(3-ethyl-5-(piperidin-4-yl)-1H-indol-2-yl)-1H-pyrrolo[2,3-b]pyridine] | 100 to 1000 | 100 to 1000 | 1000 to 50000 |
| Cc1nnn2ccc(-c3[nH]c4ccc(C5CCN(CC(N)=O)CC5)cc4c3C(C)C)cc12 [Example 317, 2-(4-(3-isopropyl-2-(3-methyl-[1,2,3]triazolo[1,5-a]pyridin-5-yl)-1H-indol-5-yl)piperidin-1-yl)acetamide] | < 100 | < 100 | 1000 to 50000 |
| CC(C)c1c(-c2c[nH]c3ccncc23)[nH]c2ccc(C3CCNCC3)cc12 [Example 14, 3-(3-isopropyl-5-(piperidin-4-yl)-1H-indol-2-yl)-1H-pyrrolo[3,2-c]pyridine] | > 3130 | > 3130 | 100 to 1000 |
| CNC(=O)CN1CCC(c2ccc3[nH]c(-c4cc(C)n5nncc5c4)c(C(C)C)c3c2)CC1 [Example 320, 2-(4-(3-isopropyl-2-(7-methyl-[1,2,3]triazolo[1,5-a]pyridin-5-yl)-1H-indol-5-yl)piperidin-1-yl)-N-methylacetamide] | < 100 | < 100 | 1000 to 50000 |
| Cc1cn2cc(-c3[nH]c4ccc(C5CCN(CC(=O)N(C)C)CC5)cc4c3C(C)C)c(C)cc2n1 [Example 375, 2-(4-(2-(2,7-dimethylimidazo[1,2-a]pyridin-6-yl)-3-isopropyl-1H-indol-5-yl)piperidin-1-yl)-N,N-dimethylacetamide] | < 100 | 100 to 1000 | < 100 |
| CNC(=O)CN1CCC(c2ccc3[nH]c(-c4ccnc5[nH]ncc45)c(C(C)C)c3c2)CC1 [Example 276, 2-(4-(3-isopropyl-2-(1H-pyrazolo[3,4-b]pyridin-4-yl)-1H-indol-5-yl)piperidin-1-yl)-N-methylacetamide] | < 100 | < 100 | 1000 to 50000 |
| CCc1c(-c2ccnc3[nH]ncc23)[nH]c2ccc(C3CCN(Cc4cncs4)CC3)cc12 [Example 928, 5-((4-(3-ethyl-2-(1H-pyrazolo[3,4-b]pyridin-4-yl)-1H-indol-5-yl)piperidin-1-yl)methyl)thiazole] | 100 to 1000 | < 100 | 1000 to 50000 |
| CC(C)c1c(-c2ccnc3cccnc23)[nH]c2ccc(C3CCNCC3)cc12 [Example 22, 4-(3-isopropyl-5-(piperidin-4-yl)-1H-indol-2-yl)-1,5-naphthyridine] | 100 to 1000 | < 100 | 1000 to 50000 |
